These results are taken from patent US10913773B2, “Bicyclic peptidyl inhibitor of tumor necrosis factor-alpha” (Ohio State Innovation Foundation, priority 2016, dated 2021).

A short description of one series: Serum stability test. It is filed as in vitro ADME, human. Conditions: 37° C. How it is done:
Diluted human serum (25%) was centrifuged at 15,000 rpm for 10 min, and the supernatant was collected. A peptide stock solution was diluted into the supernatant to a final concentration of 5 μM and incubated at 37° C. At various time points (0-8 h), 200-μL aliquots were withdrawn and mixed with 50 μL of 15% trichloroacetic acid and 200 μL of acetonitrile. After incubation at 4° C. overnight, the mixture was centrifuged at 15,000 rpm for 10 min in a microcentrifuge, and the supernatant was analyzed by reversed-phase HPLC equipped with an analytical C18 column (Waters). The amount of remaining intact peptide (%, relative that of time zero control) was determined by integrating the area underneath the peptide peak (monitored at 214 nm).

The test system of series [1] is TNFα-induced cell death in WEHI-13VAR fibroblasts (recombinant human TNFα). It is filed as cell-based. How it is done:
WEHI-13VAR fibroblasts were purchased from American Type Culture Collection (ATCC). For maintenance, cells were grown in full medium as RPMI-1640 supplemented with 10% FBS and 1% Abs. For toxicity assay, cells were seeded in a 96-well plate at a density of 5×10^3 cells/well in 100 μL of RPMI-1640/1% Abs supplemented with 10% or 5% FBS and allowed to grow overnight. Varying concentrations of recombinant human TNFα (0-250 ng/mL) or commercial mouse TNFα were (0-100 pg/mL) were incubated with 10 μM peptide and actinomycin D (1 μg/mL) in 100 μL of corresponding growth medium for 1 h at 37° C. Next, the medium in the 96-well plate was removed and replaced with the above fresh mixture and the cells were incubated overnight. Next day, 10 μL of the 3-(4, 5-dimethylthiazolyl-2)-2, 5-diphenyltetrazolium bromide (MTT, final concentration 0.5 mg/ml) was added to each well and incubated at 37° C. for 3 h, following by the addition of 100 μL of the MTT solubilization solution. The plate was kept in the incubator overnight to let the formazan crystals to completely dissolve, and the absorbance at 570 nm was measured on a TECAN plate reader. The LD50 was obtained as plotting the viability as a function of the TNFα concentration.
One of the biological functions of TNFα is to induce death signaling. Inhibitors against the TNFα-TNFR interaction are expected to protect cells against TNFα induced cell death. Therefore, anticachexin C1, C1-74, and C1-74-2 through C1-74-5 were compared for their ability to protect cultured WEHI-13 VAR fibroblasts, which are highly sensitive to TNFα in the presence of actinomycin-D, against TNFα-induced cell death (Khabar, K. S. A.; et al., “WEHI-13VAR: A Stable and Sensitive Variant of WEHI 164 Clone 13 Fibrosarcoma for Tumor Necrosis Factor Bioassay.” Immunol. Lett. 1995, 46:107-110). The cells were treated with a fixed concentration of peptides (10 μM) and varying concentrations of TNFα (0-1 μM), and the fraction of live cells was quantitated by the 3-(4,5-dimethylthiazol-2-yl)-2,5-diphenyltetrazolium bromide (MTT) assay. […] The MTT assay was also conducted at a fixed concentration of TNFα (0.4 ng/mL) but varying concentrations of peptides (0-10 μM).

The next series addresses T1, TNFα-TNFR1 interaction (Homo sapiens, UniProt P01375).
T1 construct: made in house; host or cells: Escherichia coli (TNFα)
Briefly: ELISA inhibition of TNFα-TNFR1 interaction (immobilized biotinylated TNFα, TNFR1-HRP). It is filed as binding. Particulars: inhibition of TNFα-TNFR1 interaction, unlabeled peptides. As for the experimental part: Inhibition of TNFα-TNRF1 interaction by ELISA was carried out as previously described (Lian, W.; et al., supra).
Because of its high-throughput capability, FA analysis had been used to generate all of the SAR data described above. […] To confirm the SAR data obtained by FA analysis, some of the compounds in Table 5 (as well as new compounds) were resynthesized without the Lys(FITC) label and employed a more sensitive ELISA-based assay to determine the IC50 values for inhibition of the TNFα-TNFR1 interaction. Briefly, biotinylated TNFα was immobilized onto a NeutrAvidin-coated surface. TNFR1 conjugated with horseradish peroxidase (HRP) (0.5 nM) was added along with different concentrations of a peptide inhibitor. After washing, the amount of bound TNFR1-HRP was quantitated by ELISA. […] In agreement with the FA results, either extension at the C-terminus of β-Ala with another amino acid (C1-67 to C1-70) or side-chain modification of β-Ala (C1-71 to C1-73) decreased TNFα binding.
On the technique in general: ELISA stands for enzyme-linked immunosorbent assay.

Series [2] has as its target Recombinant TNFα containing an N-terminal 13-aa ybbR tag (human) (UniProt P01375). Briefly: FA, FITC-peptide + TNFα titration.
In series [3] the target is T2, Recombinant TNFα containing an N-terminal 13-aa ybbR tag (human, UniProt P01375 77-233, biotin at the ybbR tag in the ELISA assays). The series can be described thus: cell-based or functional assay.
The target in series [4] is T2, Recombinant TNFα containing an …. The series can be described thus: ELISA, inhibition of TNFR1-HRP binding to immobilized biotin-TNFα. From the text:
Because of its high-throughput capability, FA analysis had been used to generate all of the SAR data described above. […] Briefly, biotinylated TNFα was immobilized onto a NeutrAvidin-coated surface.

Usually half-life stands for the time in which the quantity being followed falls by half. Read a high half-life as slow decline. A word on the IC50: it is the concentration that inhibits the measured activity by half. One may read the EC50 as the concentration giving half of the maximal effect. What is called Kd is the concentration at which binding is half-saturated.

Starred links: 1 amine or outer side, 2 acyl side, 3 side chain; linkers in the order of their positions; H or OH if unused. Positions of bridges follow the written chain, without caps; N, C: chain ends. Non-standard residues stand in square brackets, D forms with d. Residues, ends and D or L forms follow the SMILES beside them. Primed or numbered codes have the meaning given here. No end group written: not given here. *: point of attachment. FITC = O=C1OC2(c3ccc(O)cc3Oc3cc(O)ccc32)c2ccc(NC(=S)*)cc21; Trimesoyl = O=C(c1cc(C(=O)[*:2])cc(C(=O)[*:3])c1)[*:1]; trimesoyl″ = benzene-1,3,5-tricarbonyl scaffold; Phe(4-F) = N[C@@H](Cc1ccc(F)cc1)C(=O)O; trimesoyl = benzene-1,3,5-tricarbonyl; Nle = CCCC[C@H](N)C(=O)O; Dap = NC[C@H](N)C(=O)O; AEEA = NCCOCCOCC(=O)O; βAla = NCCC(=O)O

T2 sequence (P01375 77-233): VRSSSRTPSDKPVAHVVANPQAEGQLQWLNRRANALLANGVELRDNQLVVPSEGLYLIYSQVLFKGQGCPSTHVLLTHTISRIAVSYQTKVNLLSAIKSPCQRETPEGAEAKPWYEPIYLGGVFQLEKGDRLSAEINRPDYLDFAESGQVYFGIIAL
Chain of Recombinant TNFα containing an N-terminal 13-aa ybbR tag (human) (P01375 77-233): as above

For DRQIKIWFQNRRMKWKKTALDWSWLQTE [Antp-NBD], the “Time to complete degradation in human serum” value in the series “Serum stability test” was no more than 2 h. In the series “Serum stability test” (human, diluted human serum (25%), supernatant after centrifugation), this molecule yielded a half-life at 5 μM of roughly 15 min.

On to `CC(=O)[C@@H](Cc1ccccc1)NC(=O)[C@@H](C)NC(=O)C(N)Cc1ccc(F)c(F)c1` (stereo partly shown) [Compound C1-74-3], for which the LD50 in series [1] worked out at 2.6 ± 0.9 ng/mL. Besides, the half-maximal inhibitory concentration (IC50) on TNFα-TNFR1 interaction is 150 ± 43 nM. In the case of `CCCC[C@@H]1NC(=O)c2cc3cc(c2)C(=O)NC[C@@H](C(=O)NCCC(N)=O)NC(=O)[C@H](Cc2c[nH]cn2)NC(=O)[C@@H](CCCCN)NC(=O)CNC(=O)[C@@H](Cc2c[nH]cn2)NC(=O)[C@H](Cc2c[nH]c4ccccc24)NC(=O)[C@H](CCCCNC3=O)NC(=O)[C@@H](C)NC(=O)[C@H](Cc2ccc(O)cc2)NC1=O` [Compound C1-74] ([Nle]Y[dA]KW[dH]G[dK]H[Dap][βAla]-NH2; linker N-4-10 via Trimesoyl), the EC50 in series [1] was roughly 1000 nM. Besides, the IC50 at TNFα-TNFR1 interaction is 70 nM.

B1: C1-38 (peptide)
peptide: [Nle][Phe(4-F)][dS]K[Phe(4-F)][dH]G[dK]H[Dap]K(FITC)-NH2
modifications: linker (positions not given here) via trimesoyl; not fully specified (N-terminus, bridges)
With B1, the Kd in series [2] is 2100 nM.

B2: C1-56 (peptide)
peptide: [Nle]Y[dS]KW[dH]G[dK]H[Dap][dF][AEEA]K(FITC)-NH2
modifications: linker (positions not given here) via trimesoyl; not fully specified (N-terminus, bridges)
As for B2, the Kd in series [2] stood at 630 nM.

B3: C1-74 (peptide)
peptide: [Nle]Y[dA]KW[dH]G[dK]H[Dap][βAla]-NH2
modifications: linker N-4-10 via trimesoyl
notes: C1-66 with D-Ser3 reverted to D-Ala; also called bicyclic peptide C1-74
On to B3, for which the “EC50 of protection of WEHI-13VAR cells from 0.4 ng/mL TNFα, MTT” value in series [3] is roughly 1000 nM. In the case of [Nle]Y[dS]KW[dH]G[dK]H[Dap][βAla]A-NH2 (linker N-4-10 via trimesoyl″, No Lys(FITC) label) [C1-68], the IC50 in series [4] amounted to 2600 nM.
